Experimental data as given in patent US8569324B2, “Potentiator for radiation therapy comprising pyridine derivative as active ingredient” (Taiho Pharmaceutical Co., Ltd., priority 2005, dated 2013).
Where “and” joins values, the source holds several entries; their conditions need not be identical. Equal entries are not always repeated.

Tests used:
[1] = tested on: human lung cancer LC-11 strain; assay: Comparative Example 1: radiotherapy enhancing effect of cisplatin on human lung cancer LC-11 strain transplanted into nude mice; assay type: in vivo, BALB/cA-nu mouse
Procedure: (a) Preparation of test solution I: The cisplatin solution (0.5 mg/mL) available from Bristol-Myers Squibb Company was used as it was. 0.1 mL per mouse body weight 10 g was administered for the dose of cisplatin 5 mg/kg, and […] per mouse body weight 10 g was administered for the dose of 7.5 mg/kg. (b) Method for radiation (X-ray) irradiation: Local irradiation was performed on a human tumor strain transplanted into the right femoral region of the mouse using MBR-1505R Type 2 X-ray Irradiation System of Hitachi Medical Corporation under an irradiation condition (irradiation position) so that exposure per mouse should be 2 Gy or 5 Gy. To prevent systemic irradiation, mice were placed in a storage box made of lead so that only their right leg should be exposed to radiation. (c) Test: The human lung cancer LC-11 strain subcutaneously transplanted into the back of a BALB/cA-nu mouse and grown beforehand were removed, cut into small fragments of about 2×2 mm^2 with scissors in physiological saline, and subcutaneously transplanted into the right femoral region of 5 to 6-week-old mice of the same strain with a transplantation needle. The mice were bred for at least 1 to 2 weeks and divided into the control group, the radiation alone group, the drug alone group, and the drug plus radiation group, so that the tumor volume and standard deviation (S.D.) in each group (n=6 per group) should be as uniform as possible. Then, drug administration and X-ray irradiation were initiated. For the drug treatment group, 0.1 mL per body weight 10 g of a cisplatin solution for the dose of 5 mg/kg or […] per body weight 10 g of this solution for the dose of 7.5 mg/kg was administered into the caudal vein on day 1. The radiation group was irradiated with 2 Gy of X-ray in the above-described manner on day 1, at the start of the test, and on day 8. For tumor-bearing mice in the control group (non-radiation/non-drug treatment group) and the radiation alone group, physiological saline was administered into the caudal vein on day 1. By using the above-mentioned numerical formula 1, the tumor volume of each mouse in each group was obtained prior to the start of treatment experiment, on days 3, 5, 8 (1 week later) and 11 during the treatment period, and days 15 (2 weeks later), 18, 22 (3 weeks later), 25, and 29 (4 weeks later) after completion of treatment. A relative tumor volume (RTV) to the tumor volume at the start of the test was obtained for each mouse. Then, the mean tumor growth inhibition rate (IR; %) in each treatment group based on the control group was obtained by using the above-mentioned numerical formula 2 on days 15, at the end of the treatment period, and 29, at 4 weeks later, and shown in Table 3.

[2] = tested on: normal skin; assay: Test Example 3: effect of irradiation on disorders of normal tissues (normal skin), severity by method of Douglas et al.; assay type: in vivo, BALB/cA-nu mice; conditions: CDHP 50 mg/kg/day oral 7 days + 20 Gy X-ray on days 1 and 3; 6 animals; radiation alone: grades 1.5 or higher in all 6 after day 14
Procedure: (a) Preparation of test solution: CDHP was suspended in a 0.5% (W/V) HPMC solution at a concentration of 5.0 mg/mL, and the suspension was stirred with a stirrer at room temperature for about 10 minutes and ultrasonicated with ice cooling for about 5 minutes to obtain a drug solution of 50 mg/kg/day as CDHP. (b) Method for X-ray irradiation: Local irradiation was performed on the right femoral region of the mouse using MBR-1505R Type 2 X-ray Irradiation System of Hitachi Medical Corporation under an irradiation condition (irradiation position) so that exposure per mouse should be 20 Gy. To prevent systemic irradiation, mice were placed in a storage box made of lead so that only their right leg should be exposed to radiation. (c) Test: Six to 8-week-old BALB/cA-nu mice were divided into the control group, the radiation alone group, and the drug plus radiation group, each consisting of 6 animals, and drug administration and X-ray irradiation were initiated. […] (d) Determination of severity of skin disorders: From 7 days after the end of the test, severity of skin disorders in the femoral region caused by irradiation was determined by the method of Douglas, et al. (Douglas B G, et al.: The effect of multiple small doses of X-rays on skin reactions in the mice and a basic interpretation. Radiation Res., 66: 401-426, 1976.).

[3] = tested on: human lung cancer strain (LC-11); assay: Test Example 1: radiotherapy enhancing effect of CDHP on human lung cancer strain LC-11 transplanted into nude mice; assay type: in vivo, BALB/cA-nu mouse
Procedure: (a) Preparation of test solution: 5-Chloro-2,4-dihydroxypyridine (CDHP) was suspended in a 0.5% (W/V) hydroxypropylmethylcellulose (HPMC) solution at concentrations of 0.25 and 2.5 mg/mL, and the suspension was stirred with a stirrer at room temperature for about 10 minutes and ultrasonicated for about 5 minutes with ice cooling to obtain a drug solution of 2.5 or 25 mg/kg/day as CDHP. (b) Method for Radiation (X-ray) irradiation: Local irradiation was performed on a human tumor strain transplanted into the right femoral region of the mouse using MBR-1505R Type 2 X-ray Irradiation System of Hitachi Medical Corporation under an irradiation condition (irradiation position) so that exposure per mouse should be 2 Gy or 5 Gy. To prevent systemic irradiation, mice were placed in a storage box made of lead so that only their right leg should be exposed to radiation. (c) Test: The human lung cancer strain (LC-11) subcutaneously transplanted into the back of a BALB/cA-nu mouse and grown beforehand were removed, cut into small fragments of about 2×2 mm^2 with scissors in physiological saline, and subcutaneously transplanted into the right femoral region of 5 to 6-week-old mice of the same strain with a transplantation needle. The mice were bred for at least 1 to 2 weeks and divided into the control group, the radiation alone group, the drug alone group, and the drug plus radiation group, so that the tumor volume and standard deviation (S.D.) in each group (n=6 per group) should be as uniform as possible. Then, drug administration and X-ray irradiation were initiated. The drug treatment group was orally administered with 0.1 mL each of the above-described CDHP drug solution per body weight 10 g once daily for 14 consecutive days using a sonde for oral administration. The radiation group was irradiated with 2 Gy or 5 Gy of X-ray within about 1 hour after administration of the CDHP drug solution in the above-described manner on day 1, at the start of the test, and on day 8. Tumor-bearing mice in the control group (non-radiation/non-drug treatment group) and the radiation alone group were orally administered with 0.5% HPMC solution alone in the same manner for 14 consecutive days.
By using the following numerical formula 1, the tumor volume of each mouse in each group was obtained prior to the start of treatment experiment, on days 3, 5, 8 (1 week later) and 11 during the treatment period, and days 15 (2 weeks later), 18, 22 (3 weeks later), 25, and 29 (4 weeks later) after completion of the treatment. A relative tumor volume (RTV) to the tumor volume at the start of the test was obtained for each mouse. […] The mean tumor growth inhibition rate (IR; %) in each treatment group based on the control group was obtained by using the following numerical formula 2 on days 15, at the end of the treatment period, and 29 at 4 weeks later and shown in Table 1.

[4] = tested on: human lung cancer strain (LC-11); assay: Test Example 2: radiotherapy enhancing effect of CNDP on human lung cancer strain LC-11 transplanted into nude mice; assay type: in vivo, BALB/cA-nu mouse
Procedure: (a) Preparation of test solution: 3-Cyano-2,6-dihydroxypyridine (CNDP) was suspended in a 0.5% (W/V) hydroxypropylmethylcellulose (HPMC) solution at concentrations of 2.5 and 5.0 mg/mL, and the suspension was stirred with a stirrer at room temperature for about 10 minutes and ultrasonicated for about 5 minutes with ice cooling to obtain a drug solution of 25 or 50 mg/kg/day as CNDP. (b) Method for radiation (X-ray) irradiation: Local irradiation was performed on a human tumor strain transplanted into the right femoral region of the mouse using MBR-1505R Type 2 X-ray Irradiation System of Hitachi Medical Corporation under an irradiation condition (irradiation position) so that exposure per mouse should be 2 Gy or 5 Gy. To prevent systemic irradiation, mice were placed in a storage box made of lead so that only their right leg should be exposed to radiation. (c) Test: The human lung cancer strain (LC-11) subcutaneously transplanted into the back of a BALB/cA-nu mouse and grown beforehand were removed, cut into small fragments of about 2×2 mm^2 with scissors in physiological saline, and subcutaneously transplanted into the right femoral region of 5 to 6-week-old mice of the same strain with a transplantation needle. The mice were bred for at least 1 to 2 weeks and divided into the control group, the radiation alone group, the drug alone group, and the drug plus radiation group, so that the tumor volume and standard deviation (S.D.) in each group (n=6 per group) should be as uniform as possible. Then, drug administration and X-ray irradiation were initiated. The drug treatment group was orally administered with 0.1 mL of the above-described 5 mg/mL CNDP drug solution per body weight 10 g once daily for 14 consecutive days using a sonde for oral administration. The radiation group was irradiated with 2 Gy or 5 Gy of X-ray within about 1 hour after administration of the CNDP drug solution in the above-described manner on day 1, at the start of the test, and on day 8. Tumor-bearing mice in the control group (non-radiation/non-drug treatment group) and the radiation alone group were orally administered with […] solution alone in the same manner for 14 consecutive days.
By using the above-mentioned numerical formula 1, the tumor volume of each mouse in each group was obtained prior to the start of treatment experiment, on days 3, 5, 8, (1 week later) and 11 during the treatment period, and day 15 (2 weeks later) after completion of treatment. A relative tumor volume (RTV) to the tumor volume at the start of the test was obtained for each mouse (FIG. 1).

SMILES: [NH2][Pt]([NH2])([Cl])[Cl] [CDDP, cisplatin]
- IR (%) Day 15 ([1]; CDDP 5.0 mg/kg caudal vein on day 1 + X-ray 2 Gy on days 1 and 8, Day 15): 53.8%
- IR (%) Day 29 ([1]; CDDP 5.0 mg/kg caudal vein on day 1 + X-ray 2 Gy on days 1 and 8, Day 29): 46.8%
- IR (%) Day 15 ([1]; CDDP 5.0 mg/kg caudal vein on day 1, no X-ray, Day 15): 39.9%
- IR (%) Day 29 ([1]; CDDP 5.0 mg/kg caudal vein on day 1, no X-ray, Day 29): 45.6%
- enhancement of antitumor effects by combination compared with CDDP alone ([1]; CDDP 5 mg/kg or 7.5 mg/kg and 2-Gy X-ray irradiation): did not significantly enhance antitumor effects
- IR (%) Day 15 ([1]; CDDP 7.5 mg/kg caudal vein on day 1 + X-ray 2 Gy on days 1 and 8, Day 15): 54.6%
- IR (%) Day 29 ([1]; CDDP 7.5 mg/kg caudal vein on day 1 + X-ray 2 Gy on days 1 and 8, Day 29): 66.8%
- IR (%) Day 15 ([1]; CDDP 7.5 mg/kg caudal vein on day 1, no X-ray, Day 15): 55.8%
- IR (%) Day 29 ([1]; CDDP 7.5 mg/kg caudal vein on day 1, no X-ray, Day 29): 60.2%
- radiotherapy enhancing effect ([1]; series of examinations using human lung cancer LC-11 strain): very weak

SMILES: Oc1cc(O)c(Cl)cn1 [CDHP, 5-chloro-2,4-dihydroxypyridine]
- severity of skin disorders in the femoral region caused by irradiation [2]: mild disorders (redness, swelling) were observed only in 1 or 2 mice
- Tumor growth inhibition rate IR(%) Day 15 ([3]; CDHP 2.5 mg/kg oral once daily 14 days + X-ray 2 Gy on days 1 and 8, Day 15): 41%
- Tumor growth inhibition rate IR(%) Day 29 ([3]; CDHP 2.5 mg/kg oral once daily 14 days + X-ray 2 Gy on days 1 and 8, Day 29): 25% and 24.7* %
- Tumor growth inhibition rate IR(%) Day 15 ([3]; CDHP 2.5 mg/kg oral once daily 14 days, X-ray 0 Gy, Day 15): 17.2%
- Tumor growth inhibition rate IR(%) Day 29 ([3]; CDHP 2.5 mg/kg oral once daily 14 days, X-ray 0 Gy, Day 29): −7.9%
- Tumor growth inhibition rate IR(%) Day 15 ([3]; CDHP 25 mg/kg oral once daily 14 days + X-ray 2 Gy on days 1 and 8, Day 15): 57% and 57.2%
- Tumor growth inhibition rate IR(%) Day 29 ([3]; CDHP 25 mg/kg oral once daily 14 days + X-ray 2 Gy on days 1 and 8, Day 29): 46% and 46.3** %
- Tumor growth inhibition rate IR(%) Day 15 ([3]; CDHP 25 mg/kg oral once daily 14 days, X-ray 0 Gy, Day 15): 9.7%
- Tumor growth inhibition rate IR(%) Day 29 ([3]; CDHP 25 mg/kg oral once daily 14 days, X-ray 0 Gy, Day 29): −15.3%
- enhancement of the effect of X-ray ([3]; CDHP 2.5 and 25 mg/kg with 2-Gy X-ray irradiation in combination): significantly enhanced the effect of X-ray
- antitumor effect of drug alone ([3]; CDHP alone, both doses 2.5 and 25 mg/kg): hardly showed any antitumor effect
- serious adverse drug reactions (body weight loss, skin disorders) ([3]; mice receiving CDHP and X-ray in combination): no serious adverse drug reactions such as body weight loss and skin disorders were observed

SMILES: N#Cc1ccc(O)nc1O [CNDP, 3-cyano-2,6-dihydroxypyridine]
- Tumor growth inhibition rate (IR) (%) Day 11 ([4]; CNDP 25 mg/kg oral once daily + X-ray 2 Gy on days 1 and 8, Day 11): 44.7%
- Tumor growth inhibition rate IR(%) Day 15 ([4]; CNDP 25 mg/kg oral once daily + X-ray 2 Gy on days 1 and 8, Day 15): 54.6%
- Tumor growth inhibition rate (IR) (%) Day 11 ([4]; CNDP 50 mg/kg oral once daily 14 days, X-ray 0 Gy, Day 11): 1.8%
- Tumor growth inhibition rate IR(%) Day 15 ([4]; CNDP 50 mg/kg oral once daily 14 days, X-ray 0 Gy, Day 15): 8.2%
- Tumor growth inhibition rate (IR) (%) Day 11 ([4]; CNDP 50 mg/kg oral once daily + X-ray 2 Gy on days 1 and 8, Day 11): 44.4%
- Tumor growth inhibition rate IR(%) Day 15 ([4]; CNDP 50 mg/kg oral once daily + X-ray 2 Gy on days 1 and 8, Day 15): 60.4%
- enhancement of the antitumor effect of X-ray ([4]; CNDP 25 and 50 mg/kg with 2-Gy X-ray irradiation in combination): significantly increased the antitumor effect of 2-Gy X-ray
- antitumor effect of drug alone ([4]; CNDP alone, high dose of 50 mg/kg): hardly showed any antitumor effect
- serious adverse drug reactions (body weight loss, skin disorders) ([4]; mice receiving CNDP and X-ray in combination): no serious adverse drug reactions such as body weight loss and skin disorders were observed
